We go through six compounds from BindingDB's records for patent US12286435 (Bionna (Beijing) Medical Technology, 2025).

Test [1] has as its target T1, Bromodomain-containing protein 4 [58-164] (Homo sapiens, UniProt O60885).
T1 construct: 58-164
Kind of test: Determination of the value of binding affinity constant (KO between the compound and BRD4 BD1 protein. The procedure: The multifunctional microplate reader was a product of TECAN, model: SPARK 10M. Buffer: 100 mM potassium phosphate (pH 6.5), 2% ethylene glycol (Sigma) and 0.01% Trition X-100 (Sigma). The experimental water was Millipore-Q pure water.The specific experimental steps were as follows.First, the compound to be tested was dissolved in ethylene glycol to prepare into a 10 mM standard stock solution. Subsequently, the standard stock solution of the compound to be tested was diluted into a working sample solution with the buffer in an EP tube and ready for use. The concentration of the prepared working sample solution was 5 times of the highest sample concentration required on the test plate (5×test compound solution).[…] of a 5× test compound solution of a sample A was added to wells B1-B3 of a 96-well plate, and 40 μL of a 5× test compound solution of a sample B was added to wells B7-B9 of the 96-well plate, respectively. 20 uL of the buffer was added to the remaining wells, except for wells B1-B3 and B7-B9. Then, 20 uL of a solution was taken from wells B1-B3 to C1-C3, and this 2-fold dilution was repeated from C1-C3 until H4-H6; in the same way, 20 uL of a solution was taken from B7-B9 to C7-C9, this 2-fold dilution was repeated from C7-C9 until H10-H12.

The target in test [2] is T2, Bromodomain-containing protein 4 [348-457] (Human, UniProt O60885).
T2 construct: 348-457
The test is described as follows: Determination of the value of binding affinity constant (KO between the compound and BRD4 BD2 protein. The procedure:
The multifunctional microplate reader was a product of TECAN, model: SPARK 10M. Buffer: 100 mM potassium phosphate (pH 6.5), 2% ethylene glycol (Sigma) and 0.01% Trition X-100 (Sigma). The experimental water was Millipore-Q pure water.The Ki value of the compound and BRD4 BD2 protein was measured according to the FP test procedures for detecting the Ki value of the compound and BRD4 BD1 protein except that the BRD4 BD1 protein was replaced with the BRD4 BD2 protein.

On to `COC(=O)Cc1ccc(NC2CCn3nnc(C)c3-c3ccc(-c4cnn(C)c4)cc32)cc1` (configuration not stated) [US12286435, Code LB38], for which the Ki (commonly a measure of affinity in units of concentration, obtained from inhibition or displacement) in test [1] came out at 0.0448 µM; in test [2] it was 0.00929 µM.

For `Cc1nnn2c1-c1ccc(C3=CCNCC3)cc1C(Nc1c(F)cccc1Cl)CC2` (configuration not stated) [US12286435, Code LC198], the results for the Ki in test [1] and in test [2] were 2.98 µM and 0.153 µM, respectively.

For the compound `CCCCN1CC=C(c2ccc3c(c2)C(Nc2cccc(Cl)c2)CCn2nnc(C)c2-3)CC1` (configuration not stated) [US12286435, Code BH108], the inhibition constant Ki in test [1] came out at 0.451 µM; in test [2] it was 0.0243 µM.

Take `Cc1nnn2c1-c1ccc(-c3cnn(C)c3)cc1C(Nc1cccc(CCO)c1)CC2` (configuration not stated) [US12286435, Code LB71]: the figures for the inhibition constant Ki in test [1] and in test [2] were 0.0922 µM and 0.0305 µM, respectively.

In the case of `COC(=O)Cc1ccccc1NC1CCn2nncc2-c2ccc(-c3cnn(C)c3)cc21` (configuration not stated) [US12286435, Code LB175], the Ki was 0.0435 µM in test [1] and 0.0186 µM in test [2].

Turning to `Cc1nnn2c1-c1ccc(C3=CCOCC3)cc1C(Nc1cccc(Cl)c1)CC2` (configuration not stated) [US12286435, Code LD31], the Ki in test [1] was 0.0391 µM; in test [2], 0.0171 µM.
